{
  "source": "paper PMC6332220",
  "about": "“Synthesis, Characterization and Biological Evaluation of Some Quinoxaline Derivatives: A Promising and Potent New Class of Antitumor and Antimicrobial Agents” (Molecules, 2015)",
  "tested_on": "Gram positive and negative bacteria",
  "test": "MIC by broth dilution, summary over bacterial strains",
  "assay_type": "cell-based",
  "conditions": "range over bacterial strains as summarised in text",
  "procedure": "The disk diffusion method was used for determination of the antimicrobial activity using ampicillin, gentamicin and amphotericin B as reference drugs. The results were recorded for each compounds as the average diameter as inhibition zones (IZ) of bacterial or fungal growth around the discs in mm as shown in Table 2.\nIn this study, MIC (quantitative method) was used for evaluation of the antimicrobial activity of tested compounds. Screening was evaluated in vitro using the Broth dilution method according to CLSI [45]. All the bacteria were incubated and activated at 30 °C for 24 h inoculation into nutrient broth and the fungi were incubated in malt extract broth for 48 h. The compounds were dissolved in DMSO and then diluted using […] Mueller-Hinton broth. […] In each case triplicate tests were performed and the average was taken as the final reading. The tubes were then inoculated with the test organisms, grown in their suitable broth at 37 °C for 24 h for tested microorganisms (1 × 10^8 CFU/mL for bacteria and 1 × 10^6 CFU/mL of fungi), each 5 mL received 0.1 mL of the above inoculum and incubated at 37 °C for 24 h.",
  "data": [
    {"compound": "NNc1nc2cc(Br)ccc2nc1Cl", "note": "[Compound 3, 6-Bromo-2-chloro-3-hydrazinylquinoxaline]", "values": [
      {"measurement": "MIC range against Gram positive and negative bacteria", "result": "0.98 to 125", "unit": "µg/mL"}
    ]}
  ]
}
